# Measured values: patent US20090221619A1, “NOVEL MATERIALS AND METHODS FOR THE PRODUCTION THEREOF” (SYNGENTA CROP PROTECTION, INC., priority 2005, published 2009)
# Read-outs that look alike come from different tables or passages of the source.
# Assays:
# Format in all cases: cell-based
# Aureobasidium pullulans [1] = test: MIC value generation: liquid culture assay on 24 well plates, solo ai; settings: A. pullulans; for EC95: concentration for 95% activity estimated from graph; for MIC: Aureobasidium pullulans, rates 0-100 mg ai/l, mean values of n = 5, read-out: MIC Minimal inhibition concentration
# Protocol: (§1) Stachybotrys chartarum, and Aureobasidium pullulans were separately cultivated on PDA media to […] sporulation. Spore suspensions were produced for each fungi.
# (§2) Test method used: liquid culture assay on 24 well plates.
# (§3) For solo (i.e. single) ai testing the formulated fungicide (100 ul) was filled into the 24 well plates (8 different rates: 100-0.05 mg ai/l final volume as described above) and 100 ul distilled water was added. Afterwards 800 ul of 0.3% PDA media was added to the plate. The spore suspension of the specific fungi was added to this media in advance containing approx. 100.000 spores/ml. The 24 well plates were sealed and incubated at 24° C.
# (§4) Dependent on the growth prosperities of each organisms, the evaluation was done after 3 to 6 days, when the surface of the check well was covered with mycelium. The evaluation was performed by assessing the growth of the fungi related to the check growth. The results are expressed as % activity relative to the check (values of 0-100% growth). Afterwards the results were converted in % growth inhibition. EC95 values and also MIC (minimal inhibition concentration) values were derived for each compound.
# (§5) For each solo compound a graph was drawn of percentage inhibition against the concentration of the fungicide. From this graph the concentration of the fungicide required to achieve 95% activity was estimated. Also the concentration that gave the minimum inhibition concentration was derived as MIC value.
# Stachybotrys chartarum [2] = test: as above; settings: S. chartarum; for EC95: concentration for 95% activity estimated from graph; for MIC: Stachybotrys chartarum, rates 0-100 mg ai/l, mean values of n = 5, read-out: MIC Minimal inhibition concentration
# Protocol: as §1, §2, §3, §4, §5
# Aureobasidium pullulans [3] = test: Synergy testing of 2 way mixtures, liquid culture on 24 well plates (Colby); settings: A. pullulans; for inhibition at 50 µg/mL: CDL 50 mg ai/l; for inhibition at 100 µg/mL: CDL 100 mg ai/l
# Protocol: (§6) For synergism testing of the 2 way mixtures 100 ul of each fungicide were filled into the 24 well plates (8 different rates) and 800 ul of 0.3% PDA media containing the spore suspension was added (see above). Different ratios of the 2 fungicide rates were tested at the same time.
# (§7) Stachybotrys chartarum and Aureobasidium pullulans were separately cultivated on PDA media to […] sporulation. Spore suspensions were produced for each fungi.
# (§8) For the mixtures of different fungicides the synergism was calculated based on the Colby equation, which is described below: […]
# (§9) The fungicidal action to be expected, We, for a given combination of two fungicides can be calculated as follows (see COLBY, S. R. “Calculating synergistic and antagonistic response of herbicide combinations”. Weeds 15, pages 20-22; 1967):
# (§10) wherein: X=% activity in the case of treatment with the compound of formula I at rate x, in comparison with untreated control (=0%). Y=% activity in the case of treatment with a compound of formula II at rate y, in comparison with untreated control. We=expected activity (% activity in comparison with untreated control) after treatment with the compound of formula I and a compound of formula II at a rate of x+y kg of active ingredient.
# (§11) If the activity actually observed is greater than the expected value We, there is a synergistic effect.
# (§12) All rates below are expressed as mg ai/l (i.e. ppm).
# Stachybotrys chartarum [4] = test: as above; settings: S. chartarum
# Protocol: as §6, §7, §8, §9, §10, §11, §12
# [5] = CDL 12.5 mg ai/l, PPZ table, read-out: inh % (CDL alone)
# [6] = CCZ table, read-out: inh % (CDL alone)
# [7] = DFZ table, read-out: inh % (CDL alone)
# [8] = PPZ table, read-out: inh % (CDL alone)
# [9] = TBZ table, read-out: inh % (CDL alone)
# [10] = PPZ 3.1 mg ai/l, read-out: inh % (PPZ alone)
compound,measurement,setting,value
"CC(C1CC1)C(O)(Cn1cncn1)c1ccc(Cl)cc1 (stereo not drawn) [CCZ, Cyproconazole]",EC95,Aureobasidium pullulans [1],6.5 mg ai/l
same,MIC,Aureobasidium pullulans [1],12.5 µg/mL
same,EC95,Stachybotrys chartarum [2],>100 mg ai/l
same,MIC,Stachybotrys chartarum [2],> 100 µg/mL
same,inhibition at 1.6 µg/mL,"Aureobasidium pullulans [3]; CCZ 1.6 mg ai/l, read-out: inh % (CCZ alone)",70%
same,inhibition at 3.1 µg/mL,"Aureobasidium pullulans [3]; CCZ 3.1 mg ai/l, read-out: inh % (CCZ alone)",90%
same,inhibition at 100 µg/mL,"Stachybotrys chartarum [4]; CCZ 100 mg ai/l, read-out: inh % (CCZ alone)",50%
"Cc1cc(C2CC2)nc(Nc2ccccc2)n1 [CDL, Cyprodinil]",EC95,Aureobasidium pullulans [1],>100 mg ai/l
same,MIC,Aureobasidium pullulans [1],> 100 µg/mL
same,EC95,Stachybotrys chartarum [2],46 mg ai/l
same,MIC,Stachybotrys chartarum [2],50 µg/mL
same,inhibition at 0.8 µg/mL,"Aureobasidium pullulans [3]; CDL 0.8 mg ai/l, DFZ table, read-out: inh % (CDL alone)",0%
same,inhibition at 1.6 µg/mL,"Aureobasidium pullulans [3]; CDL 1.6 mg ai/l, CCZ table, read-out: inh % (CDL alone)",10%
same,inhibition at 1.6 µg/mL,"Aureobasidium pullulans [3]; CDL 1.6 mg ai/l, DFZ table, read-out: inh % (CDL alone)",10%
same,inhibition at 1.6 µg/mL,"Aureobasidium pullulans [3]; CDL 1.6 mg ai/l, PPZ table, read-out: inh % (CDL alone)",10%
same,inhibition at 1.6 µg/mL,"Aureobasidium pullulans [3]; CDL 1.6 mg ai/l, TBZ table, read-out: inh % (CDL alone)",10%
same,inhibition at 3.1 µg/mL,"Aureobasidium pullulans [3]; CDL 3.1 mg ai/l, DFZ table, read-out: inh % (CDL alone)",10%
same,inhibition at 3.1 µg/mL,"Aureobasidium pullulans [3]; CDL 3.1 mg ai/l, PPZ table, read-out: inh % (CDL alone)",10%
same,inhibition at 3.1 µg/mL,"Aureobasidium pullulans [3]; CDL 3.1 mg ai/l, TBZ table, read-out: inh % (CDL alone)",10%
same,inhibition at 12.5 µg/mL,"Aureobasidium pullulans [3]; CDL 12.5 mg ai/l, CCZ table, read-out: inh % (CDL alone)",30%
same,inhibition at 12.5 µg/mL,"Aureobasidium pullulans [3]; CDL 12.5 mg ai/l, DFZ table, read-out: inh % (CDL alone)",30%
same,inhibition at 12.5 µg/mL,Aureobasidium pullulans [3]; [5],30%
same,inhibition at 12.5 µg/mL,"Aureobasidium pullulans [3]; CDL 12.5 mg ai/l, TBZ table, read-out: inh % (CDL alone)",30%
same,inhibition at 50 µg/mL,Aureobasidium pullulans [3]; [6],30%
same,inhibition at 50 µg/mL,Aureobasidium pullulans [3]; [7],30%
same,inhibition at 50 µg/mL,Aureobasidium pullulans [3]; [8],30%
same,inhibition at 50 µg/mL,Aureobasidium pullulans [3]; [9],50%
same,inhibition at 100 µg/mL,Aureobasidium pullulans [3]; [6],30%
same,inhibition at 100 µg/mL,Aureobasidium pullulans [3]; [7],30%
same,inhibition at 100 µg/mL,Aureobasidium pullulans [3]; [8],30%
same,inhibition at 100 µg/mL,Aureobasidium pullulans [3]; [9],50%
same,inhibition at 3.1 µg/mL,"Stachybotrys chartarum [4]; CDL 3.1 mg ai/l, CCZ table, read-out: inh % (CDL alone)",0%
same,inhibition at 12.5 µg/mL,Stachybotrys chartarum [4]; [5],70%
"CC1COC(Cn2cncn2)(c2ccc(Oc3ccc(Cl)cc3)cc2Cl)O1 (stereo not drawn) [DFZ, Difenoconazole]",EC95,Aureobasidium pullulans [1],8 mg ai/l
same,MIC,Aureobasidium pullulans [1],12.5 µg/mL
same,EC95,Stachybotrys chartarum [2],2.7 mg ai/l
same,MIC,Stachybotrys chartarum [2],3.1 µg/mL
same,inhibition at 0.8 µg/mL,"Aureobasidium pullulans [3]; DFZ 0.8 mg ai/l, read-out: inh % (DFZ alone)",90%
same,inhibition at 1.6 µg/mL,"Aureobasidium pullulans [3]; DFZ 1.6 mg ai/l, read-out: inh % (DFZ alone)",90%
same,inhibition at 3.1 µg/mL,"Aureobasidium pullulans [3]; DFZ 3.1 mg ai/l, read-out: inh % (DFZ alone)",70%
"c1ccc2[nH]c(-c3cscn3)nc2c1 [TBZ, Thiabendazole]",EC95,Aureobasidium pullulans [1],15 mg ai/l
same,MIC,Aureobasidium pullulans [1],50 µg/mL
same,EC95,Stachybotrys chartarum [2],46 mg ai/l
same,MIC,Stachybotrys chartarum [2],50 µg/mL
same,inhibition at 12.5 µg/mL,"Aureobasidium pullulans [3]; TBZ 12.5 mg ai/l, read-out: inh % (TBZ alone)",90%
"CCCC1COC(Cn2cncn2)(c2ccc(Cl)cc2Cl)O1 (stereo not drawn) [PPZ, Propiconazole]",EC95,Aureobasidium pullulans [1],36 mg ai/l
same,MIC,Aureobasidium pullulans [1],50 µg/mL
same,EC95,Stachybotrys chartarum [2],>100 mg ai/l
same,MIC,Stachybotrys chartarum [2],> 100 µg/mL
same,inhibition at 3.1 µg/mL,Aureobasidium pullulans [3]; [10],70%
same,inhibition at 12.5 µg/mL,"Aureobasidium pullulans [3]; PPZ 12.5 mg ai/l, read-out: inh % (PPZ alone)",70%
same,inhibition at 0.2 µg/mL,"Stachybotrys chartarum [4]; PPZ 0.2 mg ai/l, read-out: inh % (PPZ alone)",0%
same,inhibition at 1.6 µg/mL,"Stachybotrys chartarum [4]; PPZ 1.6 mg ai/l, read-out: inh % (PPZ alone)",0%
same,inhibition at 3.1 µg/mL,Stachybotrys chartarum [4]; [10],10%
